This assay relates to DMBA-induced tumors. Nature of the assay: Regression of DMBA-induced tumors in female rats, 11-day treatment. It is filed as in vivo. To be noted: for total tumor volume of the treated group, day 3 / total tumor volume of the treated group, day 6 / total tumor volume of the treated group, day 10 / total tumor volume of the treated group upon sacrifice, day 11 / tumor volume of one specific animal, day 3 / tumor volume of one specific animal, day 6 / tumor volume of one specific animal, day 10 / tumor volume of one specific animal, day 11: 20 μg/day s.c., b.i.d.; for total tumor volume of the treated group, day 3: day 3 of treatment; for total tumor volume of the treated group, day 6: day 6 of treatment; for total tumor volume of the treated group, day 10: day 10 of treatment; for total tumor volume of the treated group upon sacrifice, day 11 / tumor volume of one specific animal, day 11: day 11, sacrifice; for total tumor volume of the treated group at the beginning of the treatment: day 0, 100 days after 20 mg DMBA intragastric, all tumors of the group summed; for tumor volume of one specific animal at start of treatment / tumor volume of one specific animal, day 3 / tumor volume of one specific animal, day 6 / tumor volume of one specific animal, day 10 / tumor volume of one specific animal, day 11: one animal of the group; for total volume reduction in one specific animal: start to day 11. The method, then:
In a group of 3 female, 50-day old rats, tumors were induced by intragastric feeding of 20 mg of 7,12-dimethylbenzanthracene (DMBA) in 2 ml. of sesame oil. The animals developed tumors within 10-12 weeks. All animals were maintained on normal rations for 100 days following the DMBA administration, at which time treatment with the compound identified as Compound A was started, using a b.i.d. regimen for 11 days, 20 μg/day, the compound being administered subcutaneously dissolved in isotonic saline containing 0.1% (wt/vol.) of bovine serum albumin.
The three animals carried a total of 7 tumors at the beginning of the treatment with a total volume of 39.2 cc. After 3 days, the 7 tumors had reduced to a volume of 26.7 cc; on day 6 the volume had reduced to 18.6 cc, on day 10 it was 8.7 cc, which was also the volume upon sacrifice of the animals on day 11.
The animals were prepared and pre-treated in the same fashion as those in Example 2, but Compound B was used for the 11-day treatment. The three rats used started the regimen with a total of 7 tumors of 43.3 cc total volume. Again, the tumor volumes were measured on days 3, 6, 10 and upon sacrifice, showing 37.5, 24.9, 16.3 and 15.0 cc respectively.
Except for the use of Compound C, all steps of the preceding two examples were repeated. The total of 13.4 cc of volume of 3 tumors in two rats was reduced to 10.1, 5.4, 6.4 and 5.5 cc on days 3, 6, 10 and 11. […] However, that tumor was found reduced to 3.0 cc on day 11. A third animal treated in the same fashion started out the regimen with 4 tumors of 28.1 cc which reduced to 15 cc by day 6. The animal died thereafter of causes diagnosed as having no connection with the tumors or the treatment (chronic murine pneumonia).

Each structure is given as a SMILES string.

Turning to `CCNC(=O)[C@@H]1CCCN1C(=O)[C@H](CCCNC(=N)N)NC(=O)[C@H](CC(C)C)NC(=O)[C@@H](Cc1ccc(O)cc1)NC(=O)[C@H](Cc1ccc(O)cc1)NC(=O)[C@H](CO)NC(=O)[C@H](Cc1c[nH]c2ccccc12)NC(=O)[C@H](Cc1c[nH]cn1)NC(=O)[C@@H]1CCC(=O)N1` [Compound B], the “total tumor volume of the treated group, day 3” value (“total tumor volume … day 3” below) came out at 37.5 cc; the “total tumor volume of the treated group, day 6” value (from here on “total tumor volume … day 6”) was found to be 24.9 cc; the “total tumor volume of the treated group, day 10” value (shortened to “total tumor volume … day 10”) came to 16.3 cc; the “total tumor volume of the treated group upon sacrifice, day 11” value (“total tumor volume … day 11” for short) worked out at 15.0 cc. Further, the “tumor volume of one specific animal, day 3” value was found to be 2.5 cc; the “tumor volume of one specific animal, day 11” value stood at 0.125 cc; the “total volume reduction in one specific animal” value came out at 96.5%. For the same compound, for the setting “baseline”, the “total tumor volume of the treated group at the beginning of the treatment” value (from here on “total tumor volume … of the treatment”) was 43.3 cc and the “tumor volume of one specific animal at start of treatment” value was determined as 3.6 cc. Besides, the “tumor volume of one specific animal, day 6” value (day 6) came to 1.33 cc. The “tumor volume of one specific animal, day 10” value (day 10) is given as 0.73 cc.
Turning to `CCNC(=O)[C@@H]1CCCN1C(=O)[C@H](CCCNC(=N)N)NC(=O)[C@H](CC(C)C)NC(=O)[C@@H](Cc1c[nH]c2ccccc12)NC(=O)[C@H](Cc1ccc(O)cc1)NC(=O)[C@H](CO)NC(=O)[C@H](Cc1c[nH]c2ccccc12)NC(=O)[C@H](Cc1c[nH]cn1)NC(=O)[C@@H]1CCC(=O)N1` [Compound A], the “total tumor volume … day 3” value turned out to be 26.7 cc; the “total tumor volume … day 6” value was 18.6 cc; the “total tumor volume … day 10” value was 8.7 cc; the “total tumor volume … day 11” value is listed as 8.7 cc. Also, the “tumor volume of one specific animal, day 3” value came to 7.5 cc; the “tumor volume of one specific animal, day 11” value is on record as 3.76 cc; the “total volume reduction in one specific animal” value is recorded as 67.7%. Where the note is “baseline”, the “total tumor volume … of the treatment” value came to 39.2 cc and the “tumor volume of one specific animal at start of treatment” value was determined as 11.65 cc. For the same compound, the “tumor volume of one specific animal, day 6” value (day 6) came out at 8.1 cc. Where the note is “day 10”, the “tumor volume of one specific animal, day 10” value came out at 3.8 cc.
As for `CCNC(=O)[C@@H]1CCCN1C(=O)[C@H](CCCNC(=N)N)NC(=O)[C@H](CC(C)C)NC(=O)[C@@H](Cc1ccccc1)NC(=O)[C@H](Cc1ccc(O)cc1)NC(=O)[C@H](CO)NC(=O)[C@H](Cc1c[nH]c2ccccc12)NC(=O)[C@H](Cc1c[nH]cn1)NC(=O)[C@@H]1CCC(=O)N1` [Compound C], the “total tumor volume … day 3” value was 10.1 cc; the “total tumor volume … day 6” value worked out at 5.4 cc; the “total tumor volume … day 10” value is 6.4 cc; the “total tumor volume … day 11” value is given as 5.5 cc. The “total tumor volume … of the treatment” value (baseline) worked out at 13.4 cc. Moreover, where the note is “single tumor that spontaneously increased between days 6 and 10, day 6”, the “volume of one single tumor in one animal, day 6” value is listed as 0.38 cc. Moreover, under “single tumor that spontaneously increased between days 6 and 10, day 10”, the “volume of one single tumor in one animal, day 10” value was found to be 4.6 cc. The “volume of one single tumor in one animal, day 11” value (single tumor that spontaneously increased between days 6 and 10, day 11) came to 3.0 cc. For the same compound, where the note is “third animal, not in the group total, baseline”, the “tumor volume of a third animal with 4 tumors at start of regimen” value came to 28.1 cc. Where the note is “third animal, not in the group total, day 6, animal died thereafter of unrelated chronic murine pneumonia”, the “tumor volume of a third animal with 4 tumors, by day 6” value was found to be 15 cc.

The values above are taken from patent publication US4071622A, “Treatment of a mammary or DMBA inducible tumor” (Abbott Laboratories, priority 1976, dated 1978).
